Laboratory results as given in patent publication US20260001928A1 (CORTERIA PHARMACEUTICALS, priority 2022, published 2026).
*1 amine or outer side, *2 acyl side, *3 side chain or, on linkers, in order; H or OH if unused. Where a SMILES comes first, the peptide text is derived from it. Side-chain parts run from the residue outwards. [ ]: non-standard residue; d: D form. The star is where a group is joined. C20 diacid = O=C(O)CCCCCCCCCCCCCCCCCCC(=O)*; γGlu = O=C(O)[C@H](CCC(=O)[*:2])N[*:1]; NMeI = CC[C@H](C)[C@H](NC)C(=O)O; AEEA = NCCOCCOCC(=O)O; Aib = CC(C)(N)C(=O)O

Test system: human LAD2 cells
Format: cell-based
Procedure, shortened: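 Mast cell degranulation: cells exposed to peptides for 30 min at final concentrations from 50, 100 or 300 down to 0.1 or 0.001 μM, with 0.5% DMSO where used, in biological duplicates. β-hexosaminidase release was read with a fluorogenic 4-methylumbelliferyl substrate as supernatant/(supernatant + Triton-lysed pellet) × 100. EC50 came from a 4-parameter sigmoidal fit.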

EC50 | SMILES
> 300 µM | CC[C@H](C)[C@H](NC)C(=O)N[C@H](C(=O)N[C@@H](CC(C)C)C(=O)N[C@@H](CO)C(=O)N[C@@H](CC(C)C)C(=O)N[C@@H](CC(=O)O)C(=O)N[C@@H](C(=O)N1CCC[C@H]1C(=O)N[C@H](C(=O)N[C@@H](CCCCN)C(=O)N[C@@H](CC(C)C)C(=O)N[C@@H](CCCCNC(=O)COCCOCCNC(=O)CC[C@H](NC(=O)CCCCCCCCCCCCCCCCCCC(=O)O)C(=O)O)C(=O)N[C@@H](CCCCN)C(=O)N[C@H](C(=O)N[C@@H](CC(C)C)C(=O)N[C@@H](CC(C)C)C(=O)N[C@@H](CCC(=O)O)C(=O)N[C@@H](CCC(N)=O)C(=O)N[C@@H](CCC(=O)O)C(=O)N[C@@H](CCCCN)C(=O)N[C@@H](CCC(N)=O)C(=O)N[C@@H](CCCCN)C(=O)N[C@@H](CCC(=O)O)C(=O)N[C@@H](CCC(N)=O)C(=O)N[C@@H](CCCNC(=N)N)C(=O)N[C@@H](CCC(=O)O)C(=O)N[C@@H](CCC(N)=O)C(=O)N[C@@H](C)C(=O)N[C@@H](CCC(=O)O)C(=O)N[C@H](C(=O)N[C@@H](CC(N)=O)C(=O)NC(C)(C)C(=O)N[C@@H](CCC(N)=O)C(=O)N[C@H](C(=O)N[C@@H](CC(C)C)C(=O)N[C@@H](C)C(=O)N[C@@H](CCC(N)=O)C(=O)N[C@H](C(N)=O)C(C)C)[C@@H](C)CC)[C@@H](C)O)[C@@H](C)CC)[C@@H](C)CC)C(C)C)C(C)C [Cmpd 233] (H-[NMeI]VLSLD[dV]PIKLK([AEEA-γGlu-C20 diacid])KILLEQEKQKEQREQAETN[Aib]QILAQV-NH2)
49.2 µM | CC[C@H](C)[C@H](NC)C(=O)N[C@H](C(=O)N[C@@H](CC(C)C)C(=O)N[C@@H](CO)C(=O)N[C@@H](CC(C)C)C(=O)N[C@@H](CC(=O)O)C(=O)N[C@@H](C(=O)N1CCC[C@H]1C(=O)N[C@H](C(=O)N[C@@H](CCCCN)C(=O)N[C@@H](CC(C)C)C(=O)N[C@@H](CCCCNC(=O)COCCOCCNC(=O)CC[C@H](NC(=O)CCCCCCCCCCCCCCCCCCC(=O)O)C(=O)O)C(=O)N[C@@H](CCCCN)C(=O)N[C@H](C(=O)N[C@@H](CC(C)C)C(=O)N[C@@H](CC(C)C)C(=O)N[C@@H](CCC(=O)O)C(=O)N[C@@H](CCC(N)=O)C(=O)N[C@@H](CCC(=O)O)C(=O)N[C@@H](CCCCN)C(=O)N[C@@H](CCC(N)=O)C(=O)N[C@@H](CCCCN)C(=O)NC(C)(C)C(=O)N[C@@H](CCC(N)=O)C(=O)N[C@@H](CCCNC(=N)N)C(=O)N[C@@H](CCC(=O)O)C(=O)N[C@@H](CCC(N)=O)C(=O)N[C@@H](C)C(=O)N[C@@H](CCC(=O)O)C(=O)N[C@H](C(=O)N[C@@H](CC(N)=O)C(=O)NC(C)(C)C(=O)N[C@@H](CCC(N)=O)C(=O)N[C@H](C(=O)N[C@@H](CC(C)C)C(=O)N[C@@H](C)C(=O)N[C@@H](CCC(N)=O)C(=O)N[C@H](C(N)=O)C(C)C)[C@@H](C)CC)[C@@H](C)O)[C@@H](C)CC)[C@@H](C)CC)C(C)C)C(C)C [Cmpd 234] (H-[NMeI]VLSLD[dV]PIKLK([AEEA-γGlu-C20 diacid])KILLEQEKQK[Aib]QREQAETN[Aib]QILAQV-NH2)
74.1 µM | CC[C@H](C)[C@H](NC(C)=O)C(=O)N[C@H](C(=O)N[C@@H](CC(C)C)C(=O)N[C@@H](CO)C(=O)N[C@@H](CC(C)C)C(=O)N[C@@H](CC(=O)O)C(=O)N[C@@H](C(=O)N1CCC[C@H]1C(=O)N[C@H](C(=O)N[C@@H](CCCCN)C(=O)N[C@@H](CC(C)C)C(=O)N[C@@H](CCCCNC(=O)COCCOCCNC(=O)COCCOCCNC(=O)CC[C@H](NC(=O)CCCCCCCCCCCCCCCCCCC(=O)O)C(=O)O)C(=O)N[C@@H](CCCCN)C(=O)N[C@H](C(=O)N[C@@H](CC(C)C)C(=O)N[C@@H](CC(C)C)C(=O)N[C@@H](CCC(=O)O)C(=O)N[C@@H](CCC(N)=O)C(=O)N[C@@H](CCC(=O)O)C(=O)N[C@@H](CCCCN)C(=O)N[C@@H](CCC(N)=O)C(=O)N[C@@H](CCCCN)C(=O)N[C@@H](CCC(=O)O)C(=O)N[C@@H](CCC(N)=O)C(=O)N[C@@H](CCCNC(=N)N)C(=O)N[C@@H](CCC(=O)O)C(=O)N[C@@H](CCC(N)=O)C(=O)N[C@@H](C)C(=O)N[C@@H](CCC(=O)O)C(=O)N[C@H](C(=O)N[C@@H](CC(N)=O)C(=O)NC(C)(C)C(=O)N[C@@H](CCC(N)=O)C(=O)N[C@H](C(=O)N[C@@H](CC(C)C)C(=O)N[C@@H](C)C(=O)N[C@@H](CCC(N)=O)C(=O)N[C@H](C(N)=O)C(C)C)[C@@H](C)CC)[C@@H](C)O)[C@@H](C)CC)[C@@H](C)CC)C(C)C)C(C)C [Cmpd 236] (Ac-IVLSLD[dV]PIKLK([AEEA-AEEA-γGlu-C20 diacid])KILLEQEKQKEQREQAETN[Aib]QILAQV-NH2)
> 300 µM | CC[C@H](C)[C@H](NC)C(=O)N[C@H](C(=O)N[C@@H](CC(C)C)C(=O)N[C@@H](CO)C(=O)N[C@@H](CC(C)C)C(=O)N[C@@H](CC(=O)O)C(=O)N[C@@H](C(=O)N1CCC[C@H]1C(=O)N[C@H](C(=O)N[C@@H](CCCCN)C(=O)N[C@@H](CC(C)C)C(=O)N[C@@H](CCCCNC(=O)COCCOCCNC(=O)COCCOCCNC(=O)CC[C@H](NC(=O)CCCCCCCCCCCCCCCCCCC(=O)O)C(=O)O)C(=O)N[C@@H](CCCCN)C(=O)N[C@H](C(=O)N[C@@H](CC(C)C)C(=O)N[C@@H](CC(C)C)C(=O)N[C@@H](CCC(=O)O)C(=O)N[C@@H](CCC(N)=O)C(=O)N[C@@H](CCC(=O)O)C(=O)N[C@@H](CCCCN)C(=O)N[C@@H](CCC(N)=O)C(=O)N[C@@H](CCCCN)C(=O)N[C@@H](CCC(=O)O)C(=O)N[C@@H](CCC(N)=O)C(=O)N[C@@H](CCCNC(=N)N)C(=O)N[C@@H](CCC(=O)O)C(=O)N[C@@H](CCC(N)=O)C(=O)N[C@@H](C)C(=O)N[C@@H](CCC(=O)O)C(=O)N[C@H](C(=O)N[C@@H](CC(N)=O)C(=O)NC(C)(C)C(=O)N[C@@H](CCC(N)=O)C(=O)N[C@H](C(=O)N[C@@H](CC(C)C)C(=O)N[C@@H](C)C(=O)N[C@@H](CCC(N)=O)C(=O)N[C@H](C(N)=O)C(C)C)[C@@H](C)CC)[C@@H](C)O)[C@@H](C)CC)[C@@H](C)CC)C(C)C)C(C)C [Cmpd 237] (H-[NMeI]VLSLD[dV]PIKLK([AEEA-AEEA-γGlu-C20 diacid])KILLEQEKQKEQREQAETN[Aib]QILAQV-NH2)
36.7 µM | CC[C@H](C)[C@H](NC(C)=O)C(=O)N[C@H](C(=O)N[C@@H](CC(C)C)C(=O)N[C@@H](CO)C(=O)N[C@@H](CC(C)C)C(=O)N[C@@H](CC(=O)O)C(=O)N[C@@H](C(=O)N1CCC[C@H]1C(=O)N[C@H](C(=O)N[C@@H](CCCCN)C(=O)N[C@@H](CC(C)C)C(=O)N[C@@H](CCCCNC(=O)COCCOCCNC(=O)COCCOCCNC(=O)CC[C@H](NC(=O)CCCCCCCCCCCCCCCCCCC(=O)O)C(=O)O)C(=O)N[C@@H](CCCCN)C(=O)N[C@H](C(=O)N[C@@H](CC(C)C)C(=O)N[C@@H](CC(C)C)C(=O)N[C@@H](CCC(=O)O)C(=O)N[C@@H](CCC(N)=O)C(=O)N[C@@H](CCC(=O)O)C(=O)N[C@@H](CCCCN)C(=O)N[C@@H](CCC(N)=O)C(=O)N[C@@H](CCCCN)C(=O)N[C@@H](CCCCN)C(=O)N[C@@H](CCC(N)=O)C(=O)N[C@@H](CCCNC(=N)N)C(=O)N[C@@H](CCC(=O)O)C(=O)N[C@@H](CCC(N)=O)C(=O)N[C@@H](C)C(=O)N[C@@H](CCC(=O)O)C(=O)N[C@H](C(=O)N[C@@H](CC(N)=O)C(=O)NC(C)(C)C(=O)N[C@@H](CCC(N)=O)C(=O)N[C@H](C(=O)N[C@@H](CC(C)C)C(=O)N[C@@H](C)C(=O)N[C@@H](CCC(N)=O)C(=O)N[C@H](C(N)=O)C(C)C)[C@@H](C)CC)[C@@H](C)O)[C@@H](C)CC)[C@@H](C)CC)C(C)C)C(C)C [Cmpd 238] (Ac-IVLSLD[dV]PIKLK([AEEA-AEEA-γGlu-C20 diacid])KILLEQEKQKKQREQAETN[Aib]QILAQV-NH2)
> 300 µM | CC[C@H](C)[C@H](NC(C)=O)C(=O)N[C@H](C(=O)N[C@@H](CC(C)C)C(=O)N[C@@H](CO)C(=O)N[C@@H](CC(C)C)C(=O)N[C@@H](CC(=O)O)C(=O)N[C@@H](C(=O)N1CCC[C@H]1C(=O)N[C@H](C(=O)N[C@@H](CCCCN)C(=O)N[C@@H](CC(C)C)C(=O)N[C@@H](CCCCNC(=O)CC[C@H](NC(=O)CC[C@H](NC(=O)CCCCCCCCCCCCCCCCCCC(=O)O)C(=O)O)C(=O)O)C(=O)N[C@@H](CCCCN)C(=O)N[C@H](C(=O)N[C@@H](CC(C)C)C(=O)N[C@@H](CC(C)C)C(=O)N[C@@H](CCC(=O)O)C(=O)N[C@@H](CCC(N)=O)C(=O)N[C@@H](CCC(=O)O)C(=O)N[C@@H](CCCCN)C(=O)N[C@@H](CCC(N)=O)C(=O)N[C@@H](CCCCN)C(=O)N[C@@H](CCC(=O)O)C(=O)N[C@@H](CCC(N)=O)C(=O)N[C@@H](CCCNC(=N)N)C(=O)N[C@@H](CCC(=O)O)C(=O)N[C@@H](CCC(N)=O)C(=O)N[C@@H](C)C(=O)N[C@@H](CCC(=O)O)C(=O)N[C@H](C(=O)N[C@@H](CC(N)=O)C(=O)NC(C)(C)C(=O)N[C@@H](CCC(N)=O)C(=O)N[C@H](C(=O)N[C@@H](CC(C)C)C(=O)N[C@@H](C)C(=O)N[C@@H](CCC(N)=O)C(=O)N[C@H](C(N)=O)C(C)C)[C@@H](C)CC)[C@@H](C)O)[C@@H](C)CC)[C@@H](C)CC)C(C)C)C(C)C [Cmpd 241] (Ac-IVLSLD[dV]PIKLK([γGlu-γGlu-C20 diacid])KILLEQEKQKEQREQAETN[Aib]QILAQV-NH2)
> 300 µM | CC[C@H](C)[C@H](NC)C(=O)N[C@H](C(=O)N[C@@H](CC(C)C)C(=O)N[C@@H](CO)C(=O)N[C@@H](CC(C)C)C(=O)N[C@@H](CC(=O)O)C(=O)N[C@@H](C(=O)N1CCC[C@H]1C(=O)N[C@H](C(=O)N[C@@H](CCCCN)C(=O)N[C@@H](CC(C)C)C(=O)N[C@@H](CCCCNC(=O)CC[C@H](NC(=O)CC[C@H](NC(=O)CCCCCCCCCCCCCCCCCCC(=O)O)C(=O)O)C(=O)O)C(=O)N[C@@H](CCCCN)C(=O)N[C@H](C(=O)N[C@@H](CC(C)C)C(=O)N[C@@H](CC(C)C)C(=O)N[C@@H](CCC(=O)O)C(=O)N[C@@H](CCC(N)=O)C(=O)N[C@@H](CCC(=O)O)C(=O)N[C@@H](CCCCN)C(=O)N[C@@H](CCC(N)=O)C(=O)N[C@@H](CCCCN)C(=O)N[C@@H](CCC(=O)O)C(=O)N[C@@H](CCC(N)=O)C(=O)N[C@@H](CCCNC(=N)N)C(=O)N[C@@H](CCC(=O)O)C(=O)N[C@@H](CCC(N)=O)C(=O)N[C@@H](C)C(=O)N[C@@H](CCC(=O)O)C(=O)N[C@H](C(=O)N[C@@H](CC(N)=O)C(=O)NC(C)(C)C(=O)N[C@@H](CCC(N)=O)C(=O)N[C@H](C(=O)N[C@@H](CC(C)C)C(=O)N[C@@H](C)C(=O)N[C@@H](CCC(N)=O)C(=O)N[C@H](C(N)=O)C(C)C)[C@@H](C)CC)[C@@H](C)O)[C@@H](C)CC)[C@@H](C)CC)C(C)C)C(C)C [Cmpd 242] (H-[NMeI]VLSLD[dV]PIKLK([γGlu-γGlu-C20 diacid])KILLEQEKQKEQREQAETN[Aib]QILAQV-NH2)
